Measurements published in paper PMC3269340, “Pharmacokinetics of memantine in rats and mice” (PLoS Currents, 2012).
pIC50: −log10 of the molar value. Where two headings read alike, the source gives them in different places.

Key:
[1] = Human pharmacokinetics (literature); format: in vivo
OATP2B1 = target: T1, OATP2B1 (Homo sapiens, UniProt O94956); test: Indirect uptake transporter assay, OATP2B1; format: in vitro ADME
T1 construct: expressed in transfected cells; host or cells: MDCKII cells
T1 sequence (O94956 1-709): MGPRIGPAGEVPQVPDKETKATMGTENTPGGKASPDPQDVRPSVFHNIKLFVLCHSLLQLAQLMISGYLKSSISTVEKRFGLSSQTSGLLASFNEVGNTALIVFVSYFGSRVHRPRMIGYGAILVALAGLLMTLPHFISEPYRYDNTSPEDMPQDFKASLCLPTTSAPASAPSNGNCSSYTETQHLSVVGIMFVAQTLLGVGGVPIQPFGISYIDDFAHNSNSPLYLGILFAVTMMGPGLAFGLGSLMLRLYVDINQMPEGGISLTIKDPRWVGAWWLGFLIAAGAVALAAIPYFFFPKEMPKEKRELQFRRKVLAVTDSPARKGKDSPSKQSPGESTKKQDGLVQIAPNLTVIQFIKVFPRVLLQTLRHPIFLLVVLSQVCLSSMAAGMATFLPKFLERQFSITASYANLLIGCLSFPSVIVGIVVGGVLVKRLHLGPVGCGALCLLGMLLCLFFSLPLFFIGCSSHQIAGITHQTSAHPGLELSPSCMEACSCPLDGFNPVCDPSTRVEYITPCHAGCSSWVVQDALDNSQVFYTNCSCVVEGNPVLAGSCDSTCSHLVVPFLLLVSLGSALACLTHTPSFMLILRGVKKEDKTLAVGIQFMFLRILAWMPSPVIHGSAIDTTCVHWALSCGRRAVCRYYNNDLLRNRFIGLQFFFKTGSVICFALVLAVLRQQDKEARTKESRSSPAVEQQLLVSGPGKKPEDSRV
Description: To determine whether memantine is an inhibitor of the human OATP2B1 (OATP-B), OCT1, OCT2, OAT3, PEPT1, PEPT2 uptake transporters. The standard uptake transporter assay is an indirect, inhibitory-type screening assay, performed with cold test article, which in this case was memantine. It provides information on any interaction (substrate or inhibitor) between selected uptake transporters and memantine that would affect the transport of the reporter compound. […] A radiolabeled reporter substrate is transported into the cells transfected with the selected human uptake transporter, and the inhibitory effect of memantine on the transport of this reporter substrate is measured. Values are presented on a relative scale; 100% defined as transport in the presence of the solvent and without memantine (no inhibition), and 0% defined as transport detected without transporter activity. IC50 is defined as the concentration required to inhibit the transport of the reporter substrate by 50%. […]
After the experiment cells were rinsed with 2 x 100µl of Krebs-Henseleit buffer and lysed with 50 µl of 0.1M NaOH. ^3H-estrone-3-sulfate, ^14C-TEA, ^14C-metformin and ^3H-Gly-Sar transport was determined by total radioactivity by transferring an aliquot (35µl) from each well to a vial containing liquid scintillant for analysis.

CC12CC3CC(C)(C1)CC(N)(C3)C2 [memantine]
Contribution of active transport to clearance [1]: 30-40%
renal clearance higher than human GFR of 125 mL/min [1]: approximately 30%
total systemic clearance, times higher than GFR [1]: ~1.4 fold
total systemic clearance, times higher than GFR ([1]; listed as Memantine): ~ 1.4 fold
clearance ([1]; plasma, oral, 10 mg, estimated, read-out: Cl p (converted)): 2.67 mL/min/kg
pIC50 (OATP2B1; OATP2B1, probe printed in Table 5: TEA (3.6 μM), methods and text: E3S): < 3.52
inhibition at 300 µM (OATP2B1; human, probe 3H-estrone-3-sulfate, at 300 µM, read-out: inhibition of OATP2B1-mediated estrone-3-sulfate transport): 67%
